Source: PubChem BioAssay (NCI)
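Interpolation was linear, between the two tested concentrations surrounding the appropriate level; five concentrations were tested over 48 hours in 96-well plates. The concentration for full growth arrest is given as TGI.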

Key:
Test in all cases: DTP human tumour cell line panel, 48 h
A549 NSCLC = system: A549 NSCLC
SW-620 colon = system: SW-620 colon
MOLT-4 leukemia = system: MOLT-4 leukemia
SF-295 CNS = system: SF-295 CNS
UACC-257 melanoma = system: UACC-257 melanoma
HCC-2998 colon = system: HCC-2998 colon
OVCAR-4 ovarian = system: OVCAR-4 ovarian
MDA-MB-231 breast = system: MDA-MB-231 breast
SK-MEL-2 melanoma = system: SK-MEL-2 melanoma
SNB-75 CNS = system: SNB-75 CNS
RXF 393 renal = system: RXF 393 renal
TK-10 renal = system: TK-10 renal
IGROV1 ovarian = system: IGROV1 ovarian
MCF7 breast = system: MCF7 breast
SF-268 CNS = system: SF-268 CNS
COLO 205 colon = system: COLO 205 colon
T-47D breast = system: T-47D breast
K-562 leukemia = system: K-562 leukemia
NCI-H460 lung = system: NCI-H460 lung
OVCAR-5 ovarian = system: OVCAR-5 ovarian
M14 melanoma = system: M14 melanoma
CAKI-1 renal = system: CAKI-1 renal
PC-3 prostate = system: PC-3 prostate
786-0 renal = system: 786-0 renal
UO-31 renal = system: UO-31 renal
DU-145 prostate = system: DU-145 prostate
UACC-62 melanoma = system: UACC-62 melanoma
HCT-116 colon = system: HCT-116 colon
HT29 colon = system: HT29 colon
OVCAR-8 ovarian = system: OVCAR-8 ovarian
KM12 colon = system: KM12 colon
SNB-19 CNS = system: SNB-19 CNS
SK-OV-3 ovarian = system: SK-OV-3 ovarian
HS 578T breast = system: HS 578T breast
NCI-H23 lung = system: NCI-H23 lung
OVCAR-3 ovarian = system: OVCAR-3 ovarian
NCI-H226 lung = system: NCI-H226 lung
MDA-N = system: MDA-N
MDA-MB-435 = system: MDA-MB-435
U251 CNS = system: U251 CNS
EKVX NSCLC = system: EKVX NSCLC
MALME-3M melanoma = system: MALME-3M melanoma
ACHN renal = system: ACHN renal
SK-MEL-28 melanoma = system: SK-MEL-28 melanoma
HCT-15 colon = system: HCT-15 colon
SN12C renal = system: SN12C renal
HOP-62 NSCLC = system: HOP-62 NSCLC
CCRF-CEM leukemia = system: CCRF-CEM leukemia
RPMI-8226 leukemia = system: RPMI-8226 leukemia
SK-MEL-5 melanoma = system: SK-MEL-5 melanoma
BT-549 breast = system: BT-549 breast
NCI/ADR-RES ovarian = system: NCI/ADR-RES ovarian
SR leukemia = system: SR leukemia
HOP-92 NSCLC = system: HOP-92 NSCLC
HL-60(TB) leukemia = system: HL-60(TB) leukemia
SF-539 CNS = system: SF-539 CNS
NCI-H522 lung = system: NCI-H522 lung
LOX IMVI melanoma = system: LOX IMVI melanoma
A498 renal = system: A498 renal

COc1cc(Cc2nccc3cc(OC)c(OC)cc23)c(N=NN(C)C)cc1OC
TGI (A549 NSCLC): 77.2 µM | TGI (SW-620 colon): 37.9 µM | TGI (MOLT-4 leukemia): 90.3 µM | TGI (SF-295 CNS): 74.9 µM | TGI (UACC-257 melanoma): 44.9 µM | TGI (HCC-2998 colon): 28.9 µM | TGI (OVCAR-4 ovarian): 70.7 µM | TGI (MDA-MB-231 breast): 36.6 µM | TGI (SK-MEL-2 melanoma): 70.2 µM | TGI (SNB-75 CNS): > 100 µM | TGI (RXF 393 renal): 16.4 µM | TGI (TK-10 renal): 44.1 µM | TGI (IGROV1 ovarian): 39.2 µM | TGI (MCF7 breast): 37.3 µM | TGI (SF-268 CNS): 77.8 µM | TGI (COLO 205 colon): 33.8 µM | TGI (T-47D breast): 25.4 µM | TGI (K-562 leukemia): > 100 µM | TGI (NCI-H460 lung): 22.3 µM | TGI (OVCAR-5 ovarian): 40.9 µM | TGI (M14 melanoma): 39.3 µM | TGI (CAKI-1 renal): 22.3 µM | TGI (PC-3 prostate): 56.8 µM | TGI (786-0 renal): 18.6 µM | TGI (UO-31 renal): 44.8 µM | TGI (DU-145 prostate): 35.7 µM | TGI (UACC-62 melanoma): 28.9 µM | TGI (HCT-116 colon): 17.7 µM | TGI (HT29 colon): 25 µM | TGI (OVCAR-8 ovarian): 60 µM | TGI (KM12 colon): 40.2 µM | TGI (SNB-19 CNS): 85.2 µM | TGI (SK-OV-3 ovarian): 49.2 µM | TGI (HS 578T breast): 86.5 µM | TGI (NCI-H23 lung): 48.7 µM | TGI (OVCAR-3 ovarian): 73.9 µM | TGI (NCI-H226 lung): 60 µM | TGI (MDA-N): 46.1 µM | TGI (MDA-MB-435): 47.3 µM | TGI (U251 CNS): 72 µM | TGI (EKVX NSCLC): 42.4 µM | TGI (MALME-3M melanoma): 38.4 µM | TGI (ACHN renal): > 100 µM | TGI (SK-MEL-28 melanoma): 31.1 µM | TGI (HCT-15 colon): 19.6 µM | TGI (SN12C renal): 41.3 µM | TGI (HOP-62 NSCLC): > 100 µM | TGI (CCRF-CEM leukemia): 9.33 µM | TGI (RPMI-8226 leukemia): 39.7 µM | TGI (SK-MEL-5 melanoma): 26.4 µM | TGI (BT-549 breast): 44 µM | TGI (NCI/ADR-RES ovarian): 96.7 µM

COc1cc(CNNC(N)=S)cc(OC)c1OC
TGI (A549 NSCLC): > 100 µM | TGI (SW-620 colon): > 100 µM | TGI (MOLT-4 leukemia): > 100 µM | TGI (SF-295 CNS): > 100 µM | TGI (UACC-257 melanoma): > 100 µM | TGI (HCC-2998 colon): > 100 µM | TGI (MDA-MB-231 breast): > 100 µM | TGI (SNB-75 CNS): > 100 µM | TGI (RXF 393 renal): > 100 µM | TGI (TK-10 renal): > 100 µM | TGI (IGROV1 ovarian): > 100 µM | TGI (MCF7 breast): > 100 µM | TGI (SF-268 CNS): > 100 µM | TGI (COLO 205 colon): > 100 µM | TGI (T-47D breast): > 100 µM | TGI (K-562 leukemia): > 100 µM | TGI (NCI-H460 lung): > 100 µM | TGI (OVCAR-5 ovarian): > 100 µM | TGI (M14 melanoma): > 100 µM | TGI (CAKI-1 renal): > 100 µM | TGI (PC-3 prostate): > 100 µM | TGI (SR leukemia): > 100 µM | TGI (786-0 renal): > 100 µM | TGI (UO-31 renal): > 100 µM | TGI (DU-145 prostate): > 100 µM | TGI (HOP-92 NSCLC): > 100 µM | TGI (HL-60(TB) leukemia): > 100 µM | TGI (HCT-116 colon): > 100 µM | TGI (HT29 colon): > 100 µM | TGI (OVCAR-8 ovarian): > 100 µM | TGI (KM12 colon): > 100 µM | TGI (SNB-19 CNS): > 100 µM | TGI (SF-539 CNS): > 100 µM | TGI (HS 578T breast): > 100 µM | TGI (NCI-H23 lung): > 100 µM | TGI (NCI-H522 lung): > 100 µM | TGI (LOX IMVI melanoma): > 100 µM | TGI (OVCAR-3 ovarian): > 100 µM | TGI (NCI-H226 lung): > 100 µM | TGI (MDA-N): > 100 µM | TGI (MDA-MB-435): > 100 µM | TGI (U251 CNS): > 100 µM | TGI (EKVX NSCLC): > 100 µM | TGI (MALME-3M melanoma): > 100 µM | TGI (ACHN renal): > 100 µM | TGI (SK-MEL-28 melanoma): > 100 µM | TGI (HCT-15 colon): > 100 µM | TGI (SN12C renal): > 100 µM | TGI (HOP-62 NSCLC): > 100 µM | TGI (A498 renal): > 100 µM | TGI (CCRF-CEM leukemia): > 100 µM | TGI (RPMI-8226 leukemia): > 100 µM | TGI (SK-MEL-5 melanoma): > 100 µM | TGI (BT-549 breast): > 100 µM | TGI (NCI/ADR-RES ovarian): > 100 µM
